The conditions of series [1]: mouse, in vivo, 10 min.
Series [2] can be described thus: in vivo. The note with it: rat.
For series [3], the target named is T1, P2X purinoceptor 7 (Homo sapiens, UniProt Q99572).
T1 sequence (Q99572 whole entry): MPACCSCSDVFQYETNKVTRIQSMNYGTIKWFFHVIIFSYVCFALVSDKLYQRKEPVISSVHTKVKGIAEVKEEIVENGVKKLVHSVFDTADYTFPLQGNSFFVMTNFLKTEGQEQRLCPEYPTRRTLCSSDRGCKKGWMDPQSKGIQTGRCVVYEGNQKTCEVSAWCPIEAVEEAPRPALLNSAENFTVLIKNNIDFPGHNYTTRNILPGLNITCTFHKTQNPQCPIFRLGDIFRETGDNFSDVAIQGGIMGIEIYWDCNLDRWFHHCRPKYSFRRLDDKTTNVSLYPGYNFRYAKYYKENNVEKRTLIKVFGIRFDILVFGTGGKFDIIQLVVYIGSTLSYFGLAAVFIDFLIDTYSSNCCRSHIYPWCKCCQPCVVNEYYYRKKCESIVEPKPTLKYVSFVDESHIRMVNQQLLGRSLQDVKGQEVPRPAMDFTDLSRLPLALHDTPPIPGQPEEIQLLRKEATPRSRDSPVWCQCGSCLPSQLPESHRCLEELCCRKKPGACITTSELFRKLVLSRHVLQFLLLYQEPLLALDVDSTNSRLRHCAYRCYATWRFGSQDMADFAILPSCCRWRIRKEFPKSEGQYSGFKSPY

Series [4] deals with Prostaglandin G/H synthase 1 (Homo sapiens, UniProt P23219).
Prostaglandin G/H synthase 1, sequence (P23219 whole entry): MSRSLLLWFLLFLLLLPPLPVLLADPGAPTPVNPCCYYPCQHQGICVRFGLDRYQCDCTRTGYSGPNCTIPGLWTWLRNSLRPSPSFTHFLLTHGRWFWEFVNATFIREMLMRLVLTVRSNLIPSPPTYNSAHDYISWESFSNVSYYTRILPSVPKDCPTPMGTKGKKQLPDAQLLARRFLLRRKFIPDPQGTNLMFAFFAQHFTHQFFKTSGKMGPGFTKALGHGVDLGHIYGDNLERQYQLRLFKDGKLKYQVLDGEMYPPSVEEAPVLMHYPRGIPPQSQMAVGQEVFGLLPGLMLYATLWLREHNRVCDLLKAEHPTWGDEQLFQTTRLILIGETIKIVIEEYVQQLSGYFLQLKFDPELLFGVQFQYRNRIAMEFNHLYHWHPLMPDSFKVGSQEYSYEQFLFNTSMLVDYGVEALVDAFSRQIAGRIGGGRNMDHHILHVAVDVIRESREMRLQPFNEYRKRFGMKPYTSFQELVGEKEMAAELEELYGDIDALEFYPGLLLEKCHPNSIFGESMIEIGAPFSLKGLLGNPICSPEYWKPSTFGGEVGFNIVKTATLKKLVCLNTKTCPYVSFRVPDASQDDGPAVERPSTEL
Series [5] concerns the target Sphingosine 1-phosphate receptor 2 (Homo sapiens, UniProt O95136).
For series [6] the following is noted: mouse, in vivo, 0.5 h.
For series [7] the following is noted: mouse, in vivo, 0.5 h. This is another data set of the same source.
A short description of series [8]: in vivo. The conditions noted are these: mouse, hcc4006.
Series [9] can be described thus: in vivo. The note with it: mouse.
For series [10], the target named is T2, Amine oxidase [flavin-containing] B (Homo sapiens, UniProt P27338).
T2 sequence (P27338 whole entry): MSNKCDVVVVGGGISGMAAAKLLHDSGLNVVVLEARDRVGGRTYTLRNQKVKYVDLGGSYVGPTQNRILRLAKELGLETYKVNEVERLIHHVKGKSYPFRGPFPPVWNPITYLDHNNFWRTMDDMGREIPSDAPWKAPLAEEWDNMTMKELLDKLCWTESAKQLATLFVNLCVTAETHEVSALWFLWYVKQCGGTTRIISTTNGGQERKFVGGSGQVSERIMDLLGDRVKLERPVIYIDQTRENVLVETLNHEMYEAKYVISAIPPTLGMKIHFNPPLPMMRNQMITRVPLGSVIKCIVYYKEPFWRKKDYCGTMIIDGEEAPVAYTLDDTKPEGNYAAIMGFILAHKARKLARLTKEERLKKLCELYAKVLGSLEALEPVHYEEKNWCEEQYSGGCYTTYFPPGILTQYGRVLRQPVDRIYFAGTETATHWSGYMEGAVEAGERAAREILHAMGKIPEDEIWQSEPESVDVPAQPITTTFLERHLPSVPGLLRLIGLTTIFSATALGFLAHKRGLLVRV

The conditions of series [11]: papio anubis, in vivo.
The conditions of series [12]: papio anubis, in vivo. This is another data set of the same source.
For series [13] the following is noted: mouse, in vivo, 0.05 h.
The conditions of series [14]: rhesus monkey, in vivo.
For series [15] the following is noted: mouse, in vivo.
For series [16] the following is noted: primates, Brain.
For series [17] the following is noted: primates, Brain, 1.417 h.
Series [18] deals with P2Y purinoceptor 12 (Homo sapiens, UniProt Q9H244). It is filed as functional.
P2Y purinoceptor 12, sequence (Q9H244 whole entry): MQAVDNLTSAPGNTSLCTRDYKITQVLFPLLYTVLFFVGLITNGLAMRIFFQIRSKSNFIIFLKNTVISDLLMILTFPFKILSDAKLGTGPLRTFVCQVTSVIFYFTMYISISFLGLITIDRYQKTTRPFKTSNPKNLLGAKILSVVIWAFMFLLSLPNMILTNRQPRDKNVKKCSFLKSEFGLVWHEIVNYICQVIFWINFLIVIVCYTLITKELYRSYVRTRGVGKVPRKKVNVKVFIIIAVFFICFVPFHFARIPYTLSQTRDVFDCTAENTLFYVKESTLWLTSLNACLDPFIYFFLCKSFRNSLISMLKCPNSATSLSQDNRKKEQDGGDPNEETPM
The conditions of series [19]: primates, Brain, 5 min.
A short description of series [20]: in vivo. The conditions noted are these: C57BL/6, mouse.
The conditions of series [21]: rhesus monkey, in vivo, 7 min.
The conditions of series [22]: rhesus monkey, in vivo, 7 min. The source holds these as a separate data set.
The conditions of series [23]: primates, Brain. This is another data set of the same source.
A short description of series [24]: in vivo. The conditions noted are these: mouse. The source holds these as a separate data set.
In series [25] the target is Sphingosine 1-phosphate receptor 1 (Homo sapiens, UniProt P21453).
Sphingosine 1-phosphate receptor 1, sequence (P21453 whole entry): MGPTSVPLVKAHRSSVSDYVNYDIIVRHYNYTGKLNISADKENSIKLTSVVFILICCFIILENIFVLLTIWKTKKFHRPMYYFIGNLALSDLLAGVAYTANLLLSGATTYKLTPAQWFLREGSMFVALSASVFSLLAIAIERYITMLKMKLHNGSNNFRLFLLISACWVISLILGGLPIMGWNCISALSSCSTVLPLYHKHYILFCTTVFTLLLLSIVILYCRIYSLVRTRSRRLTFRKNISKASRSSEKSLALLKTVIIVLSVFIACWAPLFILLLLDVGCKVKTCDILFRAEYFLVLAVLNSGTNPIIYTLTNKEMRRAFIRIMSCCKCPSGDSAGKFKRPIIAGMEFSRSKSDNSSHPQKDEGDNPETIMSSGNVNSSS
For series [26] the following is noted: primates, Brain, 4 min.
The target in series [27] is T1, P2X purinoceptor 7. This is another data set of the same source.
For series [28] the following is noted: mouse, in vivo. The source holds these as a separate data set.
The conditions of series [29]: human, Brain, 2 min.
Series [30] is described as follows: in vivo. The note with it: C3H, mouse, iv, 10 mg/kg.
Series [31] can be described thus: in vivo. The conditions noted are these: C3H, mouse, iv, 10 mg/kg. This is another data set of the same source.
The conditions of series [32]: rhesus monkey, in vivo. This is another data set of the same source.
In series [33] the target is T2, Amine oxidase [flavin-containing] B. The source holds these as a separate data set.
For series [34] the following is noted: papio papio, in vivo.
The conditions of series [35]: cynomolgus monkey, in vivo, 2 h.
Series [36] deals with Cannabinoid receptor 2 (Homo sapiens, UniProt P34972).
Cannabinoid receptor 2, sequence (P34972 whole entry): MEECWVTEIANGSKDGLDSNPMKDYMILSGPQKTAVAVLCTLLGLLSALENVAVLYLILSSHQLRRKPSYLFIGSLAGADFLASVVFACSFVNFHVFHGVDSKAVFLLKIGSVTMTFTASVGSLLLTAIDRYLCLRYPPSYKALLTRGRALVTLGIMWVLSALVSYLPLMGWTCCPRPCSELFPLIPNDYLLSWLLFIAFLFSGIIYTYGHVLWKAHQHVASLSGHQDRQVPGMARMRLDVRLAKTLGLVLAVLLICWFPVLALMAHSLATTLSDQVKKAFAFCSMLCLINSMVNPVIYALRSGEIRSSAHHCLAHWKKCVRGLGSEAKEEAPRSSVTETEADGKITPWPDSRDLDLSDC
Series [37] can be described thus: physchem. The conditions noted are these: octanol/water.
The nature of series [38]: in vivo. The conditions noted are these: mouse. The source holds these as a separate data set.
Series [39] is described as follows: in vivo. The conditions noted are these: mouse. The source holds these as a separate data set.
Series [40] deals with T3, Prostaglandin G/H synthase 2 (Homo sapiens, UniProt P35354).
T3 sequence (P35354 whole entry): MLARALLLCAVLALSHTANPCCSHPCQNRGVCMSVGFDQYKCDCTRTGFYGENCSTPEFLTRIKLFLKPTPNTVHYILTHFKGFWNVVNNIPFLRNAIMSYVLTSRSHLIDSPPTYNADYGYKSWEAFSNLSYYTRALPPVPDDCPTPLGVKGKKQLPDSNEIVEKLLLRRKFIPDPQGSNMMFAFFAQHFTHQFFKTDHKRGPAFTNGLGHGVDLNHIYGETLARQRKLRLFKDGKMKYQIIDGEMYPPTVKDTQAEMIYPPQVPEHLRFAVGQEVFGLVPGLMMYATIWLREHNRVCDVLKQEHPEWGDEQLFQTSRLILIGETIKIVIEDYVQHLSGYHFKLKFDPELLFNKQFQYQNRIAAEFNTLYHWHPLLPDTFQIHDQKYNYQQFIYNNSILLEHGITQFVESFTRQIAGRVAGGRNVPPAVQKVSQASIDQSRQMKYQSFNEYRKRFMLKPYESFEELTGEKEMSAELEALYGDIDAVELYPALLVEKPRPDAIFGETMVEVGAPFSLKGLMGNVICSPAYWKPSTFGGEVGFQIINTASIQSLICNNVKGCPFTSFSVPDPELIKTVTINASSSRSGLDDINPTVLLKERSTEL

The conditions of series [41]: rat, in vivo, 2 h.
The conditions of series [42]: mouse, in vivo. This is another data set of the same source.
The conditions of series [43]: mouse, in vivo, 20 min.

pEC50, pIC50, pKi: −log10 of the molar value.

This note sets out measurements from ChEMBL document CHEMBL5150013, “The Repertoire of Small-Molecule PET Probes for Neuroinflammation Imaging: Challenges and Opportunities beyond TSPO” (J Med Chem, 2021).

Sphingosine 1-phosphate receptor 2, sequence (O95136 whole entry): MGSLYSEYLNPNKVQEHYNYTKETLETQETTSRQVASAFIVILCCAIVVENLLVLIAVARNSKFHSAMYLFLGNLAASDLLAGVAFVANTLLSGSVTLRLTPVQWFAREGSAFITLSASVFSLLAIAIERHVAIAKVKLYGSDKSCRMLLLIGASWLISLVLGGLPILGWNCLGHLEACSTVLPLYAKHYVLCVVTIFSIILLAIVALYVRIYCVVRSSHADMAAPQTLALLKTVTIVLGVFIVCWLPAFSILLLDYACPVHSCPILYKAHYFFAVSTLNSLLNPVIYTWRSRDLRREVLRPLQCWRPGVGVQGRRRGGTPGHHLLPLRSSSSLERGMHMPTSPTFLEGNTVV

In [1], `O=C(O)C1CN(Cc2ccc(-c3noc(-c4ccc(OCC[18F])c(C(F)(F)F)c4)n3)cc2)C1` returned an SUV of 7. In series [2], this molecule registered a tissue uptake at 5 min of 0.027 %ID/g.

Molecule `COc1ccc(CC(=O)NC(N/C(=N/C#N)Nc2cccc3ncccc23)C(C)(C)C)cc1O[11CH3]` (stereo not given) gave a pIC50 in [3] of 7.40.

On to `NS(=O)(=O)c1ccc(-n2nc3ccccc3c2-c2ccc([18F])cc2)cc1`, for which, in series [4], the negative logarithm of the IC50 (pIC50) is 4.52.

Regarding `Cc1nn(C)c2nc(NNC(=O)C(C)c3cc(Cl)nc(O[11CH3])c3)cc(C(C)C)c12` (stereo not given), the pIC50 in series [5] was 8.02. The SUV in series [6] amounted to 0.58; in series [7], 0.48.

As to `Cc1ccc(-c2ccc3cc(OC[C@H](O)C[18F])ccc3n2)cn1`, the tissue uptake at 2 min in series [8] worked out at 7.85 %ID/g; in series [9], 0.2 %ID/g.

On to `COCC1CN(c2noc3cc(OCCCC(F)(F)F)ccc23)[11C](=O)O1` (stereo not given), for which, in series [10], the negative logarithm of the Ki (pKi) was 8.54. The Vd in series [11] came to 10.3 ml/cm3; in [12], 10.9 ml/cm3.

For `[13CH3]N1C=C(C(N)=O)Cc2ccccc21`, in series [13], the SUV is listed as 3.5.

On to `OCc1cn(Cc2ccc(-c3noc(-c4ccc(OCC[18F])c(C(F)(F)F)c4)n3)cc2)nn1`, for which, in [2], the tissue uptake at 5 min stood at 0.46 %ID/g.

Turning to `[11CH3]Oc1ccc(Cc2cn[nH]c2)nc1-c1cccc([N+](=O)[O-])c1`, the Vd in [14] came to 37%.

In turn, `CN1c2cc(N)ccc2-c2ccc(N)cc2C1c1ccc([18F])cc1` (stereo not given) showed an SUV in [15] of 2.3.

As for `COc1ccc(-c2nc(O[11CH3])nn2-c2ccc(OC)cc2)cc1`, the SUV came out at 4.26 in series [16] and 0.62 in series [17].

Take `[11CH3]Oc1ccc(Cl)c(C(=O)NCC23CC4(F)CC(F)(CC(F)(C4)C2)C3)c1`: in series [18], the negative logarithm of the EC50 (pEC50) is 7.22.

Molecule `OCCOCc1ccc(-c2noc(-c3ccc(OCC[18F])c(C(F)(F)F)c3)n2)cc1` returned an SUV in [19] of 3.2.

As for `[11CH3]Oc1ccc(Cc2ccncc2)nc1-c1cccc([N+](=O)[O-])c1`, the Vd in [14] is 48%.

As for `Cc1ccccc1-c1ccc(-c2nc(-c3ccc(CN(C)CCC(=O)O)c(F)c3)no2)cc1C(F)(F)F`, the tissue uptake at 1 h in [20] turned out to be 7 %ID/g.

Consider `[2H]C([2H])([18F])Oc1nc(-c2ccc(OC)cc2)n(-c2ccc(OC)cc2)n1`, for which the SUV is reported as 4.11 in [21], 1.05 in [22], 1.99 in series [17] and 54% in series [23].

The molecule `O=C1Nc2c(Cl)ccc(OCC[18F])c2C2(CCCCC2)N1` had an SUV in series [15] of 1.74. The same molecule returned a tissue uptake in series [24] of 5 %ID/g.

On to `[11CH3]Oc1ccc(-c2c(-c3ccc(S(N)(=O)=O)cc3)[nH]c3ccccc23)cc1`, for which the pIC50 in series [4] is 5.00.

For `OCCOCCOCc1ccc(-c2noc(-c3ccc(OCC[18F])c(C(F)(F)F)c3)n2)cc1`, the SUV in series [16] is 0.7.

Regarding `[11CH3]N1C(=O)CC[C@H]1C(=O)NCc1cccc(C(F)(F)F)c1Cl`, the negative-log IC50 (pIC50) in [3] is 8.52.

Molecule `OCC(O)c1ccc(-c2noc(-c3ccc(OCC[18F])c(C(F)(F)F)c3)n2)cc1` (stereo not given) had a pIC50 in [25] of 7.81. In addition, the SUV in [26] is on record as 2.5.

In series [27], `N#C/N=C(/NCc1ccc([18F])cc1)Nc1cccc2ncccc12` had a pKi of 8.54.

On to `CS(=O)(=O)c1ccc(-n2c(-c3ccc(O[11CH3])c(F)c3)cnc2Cl)cc1`, for which the pIC50 in [4] is 5.48.

Regarding `COc1ccc(-n2nc(OCC(F)(F)F)nc2-c2ccc(O[11CH3])cc2)cc1`, the SUV came to 4.29 in series [16], 1.99 in series [17] and 54% in series [23].

Regarding `[11CH3]Oc1ccc(-c2cnc(Cl)n2-c2ccc(S(N)(=O)=O)cc2)cc1F`, the pIC50 in series [4] was 5.00.

In series [5], `Cc1nn(C)c2nc(NNC(=O)Nc3cc(Cl)nc(Cl)c3)cc(C(C)C)c12` gave a pIC50 of 7.16.

Consider `OCc1ccc(-c2noc(-c3ccc(OCC[18F])c(C(F)(F)F)c3)n2)cc1`, for which the SUV in series [26] was 3.8.

The molecule `COC(=O)C([11CH3])c1cccc(C(=O)c2ccccc2)c1` (stereo not given) showed a negative logarithm of the IC50 (pIC50) in [4] of 7.33. In addition, the figures for the SUV in [28] and in [29] were 0.97 and 1.5, respectively.

The molecule `Cc1ccc(-n2nc(C(F)(F)F)cc2-c2ccc(S(=O)(=O)Nc3ccc([18F])cc3)cc2)cc1` gave a pIC50 in series [4] of 4.00.

As to `CN([11CH3])CCc1ccccc1`, the tissue uptake at 1 min in series [30] is 7.9 %ID/g. Further, in [31], the tissue uptake at 1 h amounted to 2.8 %ID/g.

On to `CS(=O)(=O)c1ccc(-c2cc(O[11CH3])nc(NCc3cccs3)n2)cc1`, for which the pIC50 in [4] is less than 6.00. In addition, the Drug uptake in series [32] was determined as 41%.

For the molecule `N#CCCn1nc(-c2ccc(OCc3ccccc3)cc2)o[11c]1=O`, in series [33], the negative-log IC50 (pIC50) is 8.40. The same molecule came in with a Drug uptake in series [34] of 70%.

In turn, `C#CCN(C)[C@H](C[18F])Cc1ccccc1` registered an SUV in series [35] of 6.

For `CCCCOc1c(OC)ccc2cc(C(=O)NC3CCCCC3)c(=O)[nH]c12`, in series [36], the pKi was 8.02.

Molecule `CCOCCn1cc(C(=O)NC23CC4CC(CC(C4)C2)C3)c(=O)c2cccc(OC)c21` had a logD in series [37] of 2.8.

On to `CS(=O)(=O)c1ccc(-c2cc(C(F)(F)F)nc(NCc3ccc([18F])cc3)n2)cc1`, for which the tissue uptake at 1 h stood at 1.74 %ID/g in series [38] and 3.79 %ID/g in series [39].

In turn, `CS(=O)(=O)c1ccc(-c2ccsc2-c2ccc(F)cc2)cc1` gave a pKi in series [40] of 6.60. Further, the SUV in [41] was 0.17.

Consider `CN1c2cc(N)ccc2-c2ccc(N)cc2C1c1ccc(OCC[18F])cc1` (stereo not given), for which the Drug uptake is given as 10 %ID/cm3 in series [42] and 150% in series [43].
